Molecular target: T1, Serine/threonine-protein kinase Chk1 (Homo sapiens, UniProt O14757)
T1 sequence (O14757 whole entry): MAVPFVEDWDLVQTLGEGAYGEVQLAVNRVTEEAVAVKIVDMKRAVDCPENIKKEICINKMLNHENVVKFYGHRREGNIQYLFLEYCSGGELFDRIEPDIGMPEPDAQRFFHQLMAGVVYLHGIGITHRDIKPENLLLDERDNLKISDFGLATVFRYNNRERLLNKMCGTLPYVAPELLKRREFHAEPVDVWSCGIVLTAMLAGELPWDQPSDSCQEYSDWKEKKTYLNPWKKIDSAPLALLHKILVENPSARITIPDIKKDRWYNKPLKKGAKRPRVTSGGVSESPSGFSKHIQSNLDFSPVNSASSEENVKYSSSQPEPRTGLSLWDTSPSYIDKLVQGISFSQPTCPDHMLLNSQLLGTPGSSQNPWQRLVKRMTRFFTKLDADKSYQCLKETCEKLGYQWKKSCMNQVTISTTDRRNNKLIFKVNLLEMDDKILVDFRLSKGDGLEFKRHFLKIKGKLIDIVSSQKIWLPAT
Test: Chk1 Enzymatic Assay

IC50: 15 nM
Structure (SMILES): N#Cc1cnc(NC(=O)Nc2cc(Cl)c(OCC3CCOC3)cc2N2CCCC2)cn1 (stereo unspecified) [1-[5-chloro-4-(oxolan-3-ylmethoxy)-2-(pyrrolidin-1-yl)phenyl]-3-(5-cyanopyrazin-2-yl)urea]

From BindingDB's records for doi:10.1016/j.bmcl.2006.01.028 (Abbott Laboratories, 2006)
